# Test results from patent US11427548B2 (Arvinas Operations, Inc., priority 2015, dated 2022).
# Where two headings read alike, the source gives them in different places.
# Target: T1, Androgen Receptor (Homo sapiens, UniProt P10275)
# T1 construct: endogenous in cells; host or cells: VCaP cells
# T1 sequence (P10275 1-920): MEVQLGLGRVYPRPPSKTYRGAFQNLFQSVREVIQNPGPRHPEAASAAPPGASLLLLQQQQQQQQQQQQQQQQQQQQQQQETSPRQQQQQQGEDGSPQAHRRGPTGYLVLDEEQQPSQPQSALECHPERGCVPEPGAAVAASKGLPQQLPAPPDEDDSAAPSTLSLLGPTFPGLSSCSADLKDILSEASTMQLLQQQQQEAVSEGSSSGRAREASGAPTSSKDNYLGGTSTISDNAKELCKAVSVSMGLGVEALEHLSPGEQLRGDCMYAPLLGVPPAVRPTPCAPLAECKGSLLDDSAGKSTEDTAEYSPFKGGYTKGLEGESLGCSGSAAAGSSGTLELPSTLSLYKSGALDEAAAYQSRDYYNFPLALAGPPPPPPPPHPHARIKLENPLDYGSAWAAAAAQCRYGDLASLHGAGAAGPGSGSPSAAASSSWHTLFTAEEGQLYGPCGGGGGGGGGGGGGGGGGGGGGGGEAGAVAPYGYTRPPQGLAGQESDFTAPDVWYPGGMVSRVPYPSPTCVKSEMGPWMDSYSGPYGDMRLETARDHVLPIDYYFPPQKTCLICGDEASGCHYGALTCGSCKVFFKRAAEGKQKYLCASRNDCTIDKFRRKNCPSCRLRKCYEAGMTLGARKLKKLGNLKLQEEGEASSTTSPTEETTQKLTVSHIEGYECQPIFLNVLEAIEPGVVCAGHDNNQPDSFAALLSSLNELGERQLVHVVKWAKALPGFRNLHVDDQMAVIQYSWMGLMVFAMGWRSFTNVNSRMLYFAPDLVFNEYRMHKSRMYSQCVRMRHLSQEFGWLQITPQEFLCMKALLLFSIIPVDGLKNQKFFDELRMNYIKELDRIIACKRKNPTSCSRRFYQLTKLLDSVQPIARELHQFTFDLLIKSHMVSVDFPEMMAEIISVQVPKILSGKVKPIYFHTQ
# Assay: Androgen Receptor ELISA assay (PathScan AR ELISA) in VCaP cells: AR degradation, Dmax and DC50
# Assay type: cell-based
# Summary of the method: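 VCaP cells in phenol red-free RPMI with 5% charcoal-stripped FBS were grown at least 3 days, then given compound as 7 half-log doses in 0.1% DMSO with 0.1 nM R1881 for 24 h. Lysates went into a sandwich AR ELISA with TMB read at 450 nm.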
# [1] = read-out: VCaP DC50; VCaP cells; Table 35
# [2] = VCaP cells; Table 36; read-out: VCaP DC50
# [3] = VCaP, VCaP cells; Table 36; read-out: VCaP Dmax (%)
# [4] = VCaP cells; Table 35; read-out: VCaP DC50
# [5] = VCaP, VCaP cells; Table 35; read-out: VCaP Dmax (%)
compound,measurement,setting,value
Cc1ncsc1-c1ccc([C@H](C)NC(=O)[C@@H]2C[C@@H](O)CN2C(=O)[C@@H](C(C)C)n2cc(OCCCOCCCCCOc3ccc(N4C(=S)N(c5ccc(C#N)c(C(F)(F)F)c5)C(=O)C4(C)C)cc3)cn2)nc1 [Example 427],Dmax,"VCaP, read-out: VCaP Dmax (%)",< 25%
same,DC50,[1],> 0.501 µM
Cc1ncsc1-c1ccc(CNC(=O)[C@@H]2C[C@@H](O)CN2C(=O)[C@@H](NC(=O)COCCCCOc2ccc(Oc3ccc(N4C(=S)N(c5cnc(C#N)c(C(F)(F)F)c5)C(=O)C4(C)C)cc3)cc2)C(C)(C)C)cc1 [Example 384],DC50,VCaP cells; Table 34; read-out: VCaP DC50,< 0.05 µM
same,Dmax,"VCaP, VCaP cells; Table 34; read-out: VCaP Dmax (%)",> 71%
"Cc1ncsc1-c1ccc([C@H](C)NC(=O)[C@@H]2C[C@@H](O)CN2C(=O)[C@@H](NC(=O)CN2CCC(O[C@H]3C[C@H](Nc4ccc(C(=O)N[C@H]5C(C)(C)[C@H](Oc6ccc(C#N)c(Cl)c6)C5(C)C)cn4)C3)CC2)C(C)(C)C)cc1 [Example 690, N-((1r,3R)-3-(3-chloro-4-cyanophenoxy)-2,2,4,4-tetramethylcyclobutyl)-6-(((1S,3R)-3-((1-(2-(((S)-1-((2S,4R)-4-hydroxy-2-(((S)-1-(4-(4-methylthiazol-5-yl)phenyl)ethyl)carbam-oyl)pyrrolidin-1-yl)-3,3-dimethyl-1-oxobutan-2-yl)amino)-2-oxoethyl)piperidin-4-yl)oxy)cyclobutyl)amino) nicotinamide]",DC50,[2],< 0.05 µM
same,Dmax,"VCaP, read-out: VCaP Dmax (%)",> 71%
"Cc1ncsc1-c1ccc([C@H](C)NC(=O)C2C[C@@H](O)CN2C(=O)[C@@H](NC(=O)CN2CCN(CCC3(c4ccc(C(=O)N[C@H]5C(C)(C)[C@H](Oc6ccc(C#N)c(C(F)(F)F)c6)C5(C)C)cc4)COC3)CC2)C(C)(C)C)cc1 (stereo partly drawn) [Example 674, (2S,4R)-1-((S)-2-(2-(4-(2-(3-(4-(((1r,3r)-3-(4-cyano-3-(trifluoromethyl)phenoxy)-2,2,4,4-tetramethylcyclobutyl)carbamoyl)phenyl)oxetan-3-yl)ethyl)piperazin-1-yl)acetamido)-3,3-dimethylbutanoyl)-4-hydroxy-N-((S)-1-(4-(4-methylthiazol-5-yl)phenyl)ethyl)pyrrolidine-2-carboxamide]",DC50,[2],< 0.05 µM
same,Dmax,"VCaP, read-out: VCaP Dmax (%)",51 to 70%
"CC(C)(C)[C@H](NC(=O)COCCN1CCN(c2ccc(C(=O)N[C@H]3C(C)(C)[C@H](Oc4ccc(C#N)c(Cl)c4)C3(C)C)cn2)CC1)C(=O)N1C[C@H](O)C[C@H]1C(=O)NCc1ccc(C2CC2)cc1 [Example 757, N-((1r,3r)-3-(3-chloro-4-cyanophenoxy)-2,2,4,4-tetramethylcyclobutyl)-6-(4-(2-(2-(((S)-1-((2S,4R)-2-((4-cyclopropylbenzyl)car-bamoyl)-4-hydroxypyrrolidin-1-yl)-3,3-dimethyl-1-oxobutan-2-yl)amino)-2-oxoethoxy)ethyl)pipera-zin-1-yl)nicotinamide]",DC50,[2],> 0.501 µM
same,Dmax,[3],26 to 50%
"Cc1ncsc1-c1ccc([C@H](C)NC(=O)[C@@H]2C[C@@H](O)CN2C(=O)[C@@H](C(C)C)n2cc(-c3ccnc(N4CC[C@H](Oc5ccc(N6C(=S)N(c7ccc(C#N)c(C(F)(F)F)c7)C(=O)C6(C)C)cc5)C4)c3)cn2)cc1 [Example 610, (2S,4R)-1-((R)-2-(4-(2-((S)-3-(4-(3-(4-cyano-3-(trifluoromethyl)phenyl)-5,5-dimethyl-4-oxo-2-thioxoimidazolidin-1-yl)phenoxy)pyrrolidin-1-yl)pyridin-4-yl)-1H-pyrazol-1-yl)-3-methylbutanoyl)-4-hydroxy-N-((S)-1-(4-(4-methylthiazol-5-yl)phenyl)ethyl)pyrroli-dine-2-carboxamide]",Dmax,"VCaP, read-out: VCaP Dmax (%)",< 25%
same,DC50,read-out: VCaP DC50; VCaP cells; Table 36,> 0.501 µM
"Cc1ncsc1-c1ccc([C@H](C)NC(=O)[C@@H]2C[C@@H](O)CN2C(=O)[C@H](NC(=O)CN2CCN(CCCc3ccc(C(=O)N[C@H]4C(C)(C)[C@H](Oc5ccc(C#N)c(Cl)c5)C4(C)C)cc3)CC2)C2COC2)cc1 [Example 750, (2S,4R)-1-((R)-2-(4-(4-(3-(4-(((1r,3r)-3-(3-chloro-4-caynophenoxy)-2,2,4,4-tetramethylcyclobutyl)carbamoyl)phenyl)propyl)piperazin-1-yl)acetamido)-2-(oxetan-3-yl)acetyl)-4-hydroxy-N-((S)-1-(4-(4-methylthiazol-5-yl)phenyl)ethyl)pyrrolidine-2-carboxamide]",DC50,[2],> 0.501 µM
same,Dmax,[3],< 25%
Cc1ncsc1-c1ccc(CNC(=O)[C@@H]2C[C@@H](O)CN2C(=O)[C@@H](NC(=O)CCN2CCC(OCCOc3ccc(N4C(=S)N(c5ccc(C#N)c(C(F)(F)F)c5)C(=O)C4(C)C)cc3)CC2)C(C)(C)C)cc1 [Example 324],Dmax,"VCaP, read-out: VCaP Dmax (%)",26 to 50%
same,DC50,read-out: VCaP DC50; VCaP cells; Table 34,0.051 to 0.5 µM
Cc1ncsc1-c1ccc([C@H](C)NC(=O)[C@@H]2C[C@@H](O)CN2C(=O)[C@@H](NC(=O)COC[C@@H](O)[C@H](O)COc2ccc(-c3ccc(N4C(=S)N(c5ccc(C#N)c(C(F)(F)F)c5)C(=O)C4(C)C)cc3)cc2)C(C)(C)C)cc1 [Example 574],Dmax,"VCaP, read-out: VCaP Dmax (%)",> 71%
same,DC50,[1],< 0.05 µM
"Cc1ncsc1-c1ccc([C@H](CO)NC(=O)[C@@H]2C[C@@H](O)CN2C(=O)[C@@H](NC(=O)CN2CCC(CN3CCN(c4ccc(C(=O)N[C@H]5C(C)(C)[C@H](Oc6ccc(C#N)c(Cl)c6)C5(C)C)cn4)CC3)CC2)C(C)(C)C)cc1 [Example 847, N-((1r,3r)-3-(3-chloro-4-cyanophenoxy)-2,2,4,4-tetramethylcyclobutyl)-6-(4-((1-(2-(((S)-1-((2S,4R)-4-hydroxy-2-(((R)-2-hydroxy-1-(4-(4-methylthiazol-5-yl)phenyl)ethyl)carbamoyl)pyrrolidin-1-yl)-3,3-dimethyl-1-oxobutan-2-yl)amino)-2-oxoethyl)piperidin-4-yl)methyl)piperazin-1-yl)nicotinamide]",DC50,[2],< 0.05 µM
same,Dmax,"VCaP, read-out: VCaP Dmax (%)",> 71%
COc1cc(C#N)ccc1CNC(=O)[C@@H]1C[C@@H](O)CN1C(=O)[C@@H](NC(=O)COCCCCCNc1ccc(C(=O)N[C@H]2C(C)(C)[C@H](Oc3ccc(C#N)c(Cl)c3)C2(C)C)cc1)C(C)(C)C [Example 510],DC50,[4],< 0.05 µM
same,Dmax,[5],51 to 70%
Cc1ncsc1-c1ccc(CNC(=O)[C@@H]2C[C@@H](O)CN2C(=O)[C@@H](NC(=O)COCCCOCCCCCOc2ccc(N3C(=S)N(c4ccc(C#N)c(C(F)(F)F)c4)C(=O)C3(C)C)cc2)C(C)(C)C)nc1 [Example 453],Dmax,"VCaP, read-out: VCaP Dmax (%)",< 25%
same,DC50,[1],> 0.501 µM
CC(C)(C)[C@H](NC(=O)CNCCCCCNc1ccc(C(=O)N[C@H]2C(C)(C)[C@H](Oc3ccc(C#N)c(Cl)c3)C2(C)C)cc1)C(=O)N1C[C@H](O)C[C@H]1C(=O)NCc1ccc(C#N)cc1 [Example 480],DC50,[4],> 0.501 µM
same,Dmax,[5],26 to 50%
"Cc1ncsc1-c1ccc(CNC(=O)[C@@H]2C[C@@H](O)CN2C(=O)[C@@H](NC(=O)CN2CCC3(CC2)CCN(c2ccc(C(=O)N[C@H]4C(C)(C)[C@H](Oc5ccc(C#N)c(Cl)c5)C4(C)C)cn2)CC3)C(C)(C)C)cc1 [Example 672, N-((1r,3r)-3-(3-chloro-4-cyanophenoxy)-2,2,4,4-tetramethylcyclobutyl)-6-(9-(2-(((S)-1-((2S,4R)-4-hydroxy-2-((4-(4-methylthiazol-5-yl)benzyl)carbamoyl)pyr-rolidin-1-yl)-3,3-dimethyl-1-oxobutan-2-yl)amino)-2-oxoethyl)-3,9-diazaspiro[5.5]undecan-3-yl)nicotinamide]",DC50,[2],< 0.05 µM
same,Dmax,[3],51 to 70%
"Cc1ncsc1-c1ccc([C@H](C)NC(=O)[C@@H]2C[C@@H](O)CN2C(=O)[C@@H](NC(=O)CN2CCN(CCCOCc3cc(C(=O)N[C@@H](C)Cn4ccc(-c5ccc(C#N)c(Cl)c5)n4)n[nH]3)CC2)C(C)(C)C)cc1 [Example 698, N-((S)-1-(3-(3-chloro-4-cyanophenyl)-1H-pyrazol-1-yl)propan-2-yl)-5-((3-(4-(2-(((S)-1-((2S,4R)-4-hydroxy-2-(((S)-1-(4-(4-methylthiazol-5-yl)phenyl)ethyl)carbam-oyl)pyrrolidin-1-yl)-3,3-dimethyl-1-oxobutan-2-yl)amino)-2-oxoethyl)piperazin-1-yl)propoxy)methyl)-1H-pyrazole-3-carboxamide]",DC50,[2],< 0.05 µM
same,Dmax,[3],> 71%
COc1ccc(CNC(=O)[C@@H]2C[C@@H](O)CN2C(=O)[C@@H](NC(=O)COCCCCCNc2ccc(C(=O)N[C@H]3C(C)(C)[C@H](Oc4ccc(C#N)c(Cl)c4)C3(C)C)cc2)C(C)(C)C)cc1 [Example 522],DC50,[4],< 0.05 µM
same,Dmax,[5],51 to 70%
